From patent US4521408A, “Antibiotics-859A and production thereof” (priority 1982, dated 1985)

How the values were obtained:
Assay type in all cases: cell-based
[1] = system: Pseudomonas clinical isolate B145; assay: Comparative lethality in agar dilution test, isolate B145
Method: (§1) 859A2, carbenicillin, and gentamicin were compared in agar dilution, surface-inoculated assays at the minimum bactericidal concentration (MBC), and at 1/2 and 1/4 of the MBC, vs four clinical isolates of Pseudomonas.
(§2) Clinical isolates were supplied on nutrient agar-yeast extract slants. Strains B145 and B184 were reported as non-lactamase-containing strains whereas strains B126 and B189 contained lactamase.
(§3) A loopful of cells of each culture was transferred to 10 ml nutrient broth-yeast (NBY) extract and incubated for 16 hours at 37° C. on the shaker. The inocula were adjusted to O.D.=0.22 at 660 nm with NBY and further diluted with NBY to 1:250,000. One tenth (0.1) ml of the diluted cell suspension was added to plates containing 10 ml of Brain Heart Infusion Agar and spread uniformly over the surface with a sterile glass "hockey stick". Stock solutions of antibiotics at 10 mg/ml were added to 45° C. agar in appropriate amounts. […] After overnight incubation of plates at 37° C., a visual count of colonies was made.

[2] = system: Pseudomonas clinical isolate B126; assay: Comparative lethality in agar dilution test, isolate B126
Method: as §1, §2, §3

[3] = system: Pseudomonas clinical isolate B184; assay: Comparative lethality in agar dilution test, isolate B184
Method: as §1, §2, §3

[4] = system: Pseudomonas clinical isolate B189; assay: Comparative lethality in agar dilution test, isolate B189
Method: as §1, §2, §3

CC1(C)S[C@@H]2[C@H](NC(=O)C(C(=O)O)c3ccccc3)C(=O)N2[C@H]1C(=O)O (stereo partly drawn) [Carbenicillin, carbenicillin]
# of Colonies ([1]; 15.7 μg/ml): 368
# of Colonies ([1]; 31.3 μg/ml): 335
# of Colonies ([1]; 62.5 μg/ml): 0
# of Colonies ([2]; 125 μg/ml): 68
# of Colonies ([2]; 250 μg/ml): 28
# of Colonies ([2]; 500 μg/ml): 0
# of Colonies ([3]; 15.7 μg/ml): 75
# of Colonies ([3]; 31.3 μg/ml): 100
# of Colonies ([3]; 62.5 μg/ml): 0
# of Colonies ([4]; 31.3 μg/ml): 333
# of Colonies ([4]; 62.5 μg/ml): 263
# of Colonies ([4]; 125 μg/ml): 0

gentamicin
# of Colonies ([1]; 12.5 μg/ml): 233
# of Colonies ([1]; 25 μg/ml): 121
# of Colonies ([1]; 50 μg/ml): 0
# of Colonies ([2]; 0.39 μg/ml): 49
# of Colonies ([2]; 0.78 μg/ml): 7
# of Colonies ([2]; 1.56 μg/ml): 0
# of Colonies ([3]; 0.39 μg/ml): 79
# of Colonies ([3]; 0.79 μg/ml): 19
# of Colonies ([3]; 1.56 μg/ml): 0
# of Colonies ([4]; 0.78 μg/ml): 278
# of Colonies ([4]; 1.56 μg/ml): 53
# of Colonies ([4]; 3.12 μg/ml): 0
